Here are results for one compound from US12707888B2, “Asymmetric donor-acceptor molecular dyes” (THE UNIVERSITY OF NORTH CAROLINA AT CHARLOTTE, priority 2019, dated 2026).

The nature of series [1]: Lippert-Mataga analysis of excited state dipole moments. It counts as physicochemical. The settings on record: semi-empirically calculated using the Lippert-Mataga equation. The protocol:
The calculated HOMOs/LUMOs indicate that the strong solvatofluorochromism arises from an ICT mechanism, whereby the ground state has significant electron localization on the donor side of the molecule whereas the electron density shifts to the acceptor moiety in the excited state. To more directly quantify the strong ICT character of the TTz dyes, the excited-state dipole moments were calculated using the Lippert-Mataga equation (Eq 1):
[formula] where va and vf are the wavenumbers of the absorption and emission peaks in cm^−1, respectively; μ* and μ are the excited state and ground state dipoles, respectively; ϵ0 is the vacuum permittivity, h is Planck's constant, c is the speed of light, a is the Onsager cavity radius, Δf is the orientation polarizability, ϵ is the relative permittivity, and η is the refractive index. The dipoles were calculated using Spartan 2016 software, and the Onsager cavity radii were calculated using Gaussian '09 software.
FIGS. 9A and 9B show the Stokes shift of Bu2N-TTz-Py and Ph2N-TTz-COOH versus Δf, respectively. From the slopes of the Lippert-Mataga plots, the change between the dipole moments of the ground and excited states can be determined. Even though the Lippert-Mataga equation assumes no specific solvent-solute interactions (e.g. hydrogen bonding) and ignores solute polarizability, high degrees of linearity are apparent; and therefore, the estimations of the excited state dipoles are regarded as reliable. […] Perhaps owing to the minimal solvent interactions and rapid vibrational relaxation, the estimated changes in dipole moments (Δμ) are remarkably large (Table IV). […] Therefore, it is expected that these asymmetric TTzs dyes would be well suited to give high sensitivity in sensing applications whereby small changes in the polarity of the environment can lead to large differences in the wavelengths of fluorescence.

In a further series the test system is HEK 293T cells. The series is described as follows: Whole-cell patch clamp voltage sensitivity. Particulars: 500 nM dye, cells held at −60 mV, 10 mV steps. It counts as cell-based, Human. The protocol:
Having established its environmental sensitivity and proclivity for membrane localization, it was hypothesized that Bu2N-TTz-Py could orient itself favorably within cell membranes and sense voltage differentials across the membrane. To test the membrane voltage sensitivity of Bu2N-TTz-Py, whole-cell patch clamp electrophysiology was performed on HEK 293T cells labeled with 500 nM Bu2N-TTz-Py. […] Tests concluded that Bu2N-TTz-Py has a voltage sensitivity of approximately 10% ΔF/F per 100 mV. For context, early generation VSDs, such as RH-421, ANNINE-6, and VF2.1.Cl, display maximum voltage sensitivities of 10%-25% ΔF/F per 100 mV.
Cell labeled spectral measurements. Excitation and emission spectra were collected by labeling the alveolar macrophage cell line J774.A1 (~0.5×10^5 cells) with 1 μM Bu2N-TTz-Py in phosphate buffered saline (PBS) buffer and 0.1% TritonX-100. Cells were incubated with dye for 10 min at RT, washed thrice with PBS, and dispersed in a cuvette for fluorescent spectral measurements (Fluoromax-4, Horiba Scientific, Edison, NJ, USA). Excitation spectra were collected at 520 nm emission. Emission spectra were collected by exciting at 440 nm. Electrophysiology. […]

A short description of series [2]: UV-Vis absorbance, fluorescence emission and quantum yield in organic solvents. The format is physicochemical. The protocol:
The absorption, emission, and fluorescence lifetime characteristics of all four TTz dyes were recorded in a variety of organic solvents (FIGS. 7A-7B, Table of FIG. 8). Additionally, HOMO/LUMO levels of the TTz dyes were determined computationally in Spartan 16 using B3LYP/6-31g. Molar absorptivities of all the TTz dyes ranged from 13,000 to 86,000 cm^−1M^−1. […] However, the peak absorbance of Bu2N-TTz-Py in DCM was slightly red-shifted as compared to that of Ph2N-TTz-Py (λmax, abs=429 nm vs λmax, abs=422 nm in DCM), which is attributed to the diphenylamine moiety having weaker donor characteristics. […] Due to the low estimated ground state dipole moments of the TTz dyes (μ=6-8 D), their wavelengths of absorbance remained relatively solvent independent (st. dev.=±11 nm).
4-pyridine carboxaldehyde, 4-(dibutylamino)benzaldehyde, 4-(diphenylamino)benzaldehyde, terephthalaldehyde, dithiooxamide, and all solvents used for spectroscopic measurements were purchased from Sigma-Aldrich and used without further purification. ^1H and ^13CNMR measurements were obtained with either a JEOL 300 MHz NMR or a JEOL 500 MHz NMR. High resolution mass spectra were obtained using a Thermo Fisher Scientific MSQ Plus Single Quadrupole Mass Spectrometer. Solution-state UV-Vis spectra were collected on a Cary 300 UV-Vis spectrophotometer. Time-resolved measurements were taken on a Jobin Yvon-Spex Fluorolog equipped with a 389 nm diode laser for time-resolved PL decay measurements. Igor Pro 6.3 software was used to fit PL(t) decay data to single/multiple exponential decays. Quantum yields were calculated using 9,10-diphenylanthracene as a reference (quantum yield [ΦF] in cyclohexane=0.97).^40-41 Density functional theory (DFT) calculations were performed with Spartan computational software using B3LYP^42-43 density functional and 6-31G*^44 basis set. Temperature studies were conducted using a 10 μM Bu2N-TTz-Py MeTHF solution placed inside of a Norrell 502 NMR tube and sequentially submerged in the following liquid N2 baths:octanol (−16° C.), acetonitrile (−41° C.), acetone (−94° C.), pentane (−131° C.), MeTHF (−136° C.), and liquid N2 itself (−196° C.). The phosphorescence spectrum of Bu2N-TTz-Py (see S2) was collected similarly at −196° C. by pumping with 389 nm light while inside a liquid nitrogen bath and then probing the emission within 2 sec of removing from the bath. Human embryonic kidney cells (HEK 293T) were a kind gift from Prof. Bryan Dickinson, and Mouse macrophage J774A.1 cells were a kind gift from Prof. Deborah Nelson at the University of Chicago. Cells were cultured in Dulbecco's Modified Eagle's Medium (Invitrogen Corporation, USA) containing 10% heat inactivated Fetal Bovine Serum (FBS) (Invitrogen Corporation, USA), 100 U/mL penicillin, and 100 μg/mL streptomycin. Cells were maintained at 37° C. under 5% CO2.

`CCCCN(CCCC)c1ccc(-c2nc3sc(-c4ccncc4)nc3s2)cc1` [Bu2N-TTz-Py, 2-(N,N-dibutyl-4-aminophenyl)-5-(4-pyridyl) thiazolo[5,4-d]thiazole]: in series [1], the “Change in Dipole Δμ” value is 15.9 D and the “Excited State Dipole μ*” value is 24.3 D. The voltage sensitivity entry in the series with HEK 293T cells was “approximately 10 % ΔF/F per 100 mV”. Also, in series [2] (MeOH, reference 9,10-diphenylanthracene), the “quantum yield ΦMeOH” value amounted to 0.04. For the same compound, the “QY in aqueous environments” value in series [2] (aqueous environments) was “low QY”. The “quantum yield Φhex” value in series [2] (hex, reference 9,10-diphenylanthracene) came to 0.93. Also, the “peak absorbance λmax, abs” value in series [2] (in DCM) is listed as 429 nm.
